Assay results: ChEMBL document CHEMBL4482308, “Ghrelin o-acyltransferase inhibitors” (2017)
Active and inactive are the calls of the source. No cut-off for these calls is given here.

Assays:
[1] = Cytotoxicity in HEK293FT cells co-expressing mouse GOAT and pre-proghrelin assessed as reduction in cell viability incubated for 24 hrs by alamar blue assay; type: cell-based; details: human, read-out: LD50
[2] = target: T1, Membrane-bound ghrelin O-acyltransferase MBOAT4 (Mus musculus) (UniProt P0C7A3); experiment: Inhibition of mouse GOAT expressed in HEK293FT cells co-expressing pre-proghrelin assessed as reduction in ghrelin octanoylation up to 1 uM incubated for 24 hrs by ELISA; type: cell-based
T1 sequence (whole entry): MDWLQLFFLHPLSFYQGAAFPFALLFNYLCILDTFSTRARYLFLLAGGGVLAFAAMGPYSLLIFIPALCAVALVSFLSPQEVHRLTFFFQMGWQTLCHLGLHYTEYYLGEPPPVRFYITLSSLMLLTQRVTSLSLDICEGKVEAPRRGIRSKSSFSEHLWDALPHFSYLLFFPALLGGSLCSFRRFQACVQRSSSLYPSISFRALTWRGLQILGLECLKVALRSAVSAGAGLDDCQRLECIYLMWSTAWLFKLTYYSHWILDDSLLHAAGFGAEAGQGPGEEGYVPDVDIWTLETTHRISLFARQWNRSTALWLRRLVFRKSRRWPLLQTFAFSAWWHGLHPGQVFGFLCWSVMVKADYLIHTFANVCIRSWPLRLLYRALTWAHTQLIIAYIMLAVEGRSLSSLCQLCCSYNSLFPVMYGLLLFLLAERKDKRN

For CCNC(=O)[C@]12CCC(C)(C)C[C@H]1[C@H]1C(=O)C=C3[C@@]4(C)C=C(C#N)C(=O)C(C)(C)[C@@H]4CC[C@@]3(C)[C@]1(C)CC2, the CC50 at 24 h [1] was ≥ 10 µM.

For COC(=O)[C@]12CCC(C)(C)C[C@H]1[C@H]1C(=O)C=C3[C@@]4(C)C=C(C#N)C(=O)C(C)(C)[C@@H]4CC[C@@]3(C)[C@]1(C)CC2 [BARDOXOLONE METHYL], the CC50 at 24 h [1] was ≥ 10 µM.

In the case of CC1(C)CC[C@]2(C(=O)O)CC[C@]3(C)[C@H](C(=O)C=C4[C@@]5(C)C=C(C#N)C(=O)C(C)(C)[C@@H]5CC[C@]43C)[C@@H]2C1, the inhibition [2] was “inactive”.
